Our source for the cytotoxicity values is ChEMBL document CHEMBL3507680, “University of Dundee, Gates Library screen for HepG2 cell viability”.

The data set in a line: Human HepG2 cell viability assay in 384 well format. The class given is toxicity, cell-based. Details: dose 125 nL, time 70.5 hour; concentration not given beside the values. As to conditions: HepG2 cells, read-out: Inhibition.
As to `COC(=O)c1ccc2c(-c3ccnc(NCCO)n3)c[nH]c2c1`, the cytotoxicity at 70.5 h was -1.71%. With `COCCN1C(=O)C[C@@H]2[C@H]1CCN2C(=O)COc1ccccc1`, the cytotoxicity at 70.5 h was -20.9%. The result for `O=C(c1ccncc1)N1CCC2(CC1)CC(Oc1cccnc1)CO2` (stereo unspecified) reads -14.5%; that for `O=C(CO)N1CCc2onc(Cn3cccn3)c2C1`, -13.8%. As to `O=C(C1CC=CC1)N1CCC2(CC1)CN(Cc1ccccn1)CCO2`, the cytotoxicity at 70.5 h is -4.02%. The result for `COCCN1C[C@H]2[C@@H](C1)N(C(=O)COc1ccccc1)CC[C@H]2OC` reads -11.3%. Consider `COCC1CC2(CCN(Cc3ccccn3)CC2)CN1C(C)C` (stereo unspecified), for which the cytotoxicity at 70.5 h was -7.51%. For `O=C(c1cc(C2CC2)on1)N1CC[C@]2(C[C@H](Oc3cccnc3)CO2)C1`, the cytotoxicity at 70.5 h was -16.2%. The result for `COCCN1C[C@H]2[C@@H](C1)N(C(=O)c1cccs1)CC[C@H]2OC` reads -21.9%; that for `COCC(=O)N1C[C@@H]2OCCN(Cc3c(C)noc3C)[C@@H]2C1`, -11.4%; that for `Cc1cc(CN2CC[C@H]3C[C@H](C(=O)N(C)C)O[C@@H]3C2)no1`, -13.6%.

For `O=C(c1ccnnc1)N1C[C@@H](OCC2CCOCC2)[C@H]2OCCC[C@H]21`, the cytotoxicity at 70.5 h is -12.9%. Regarding `Cc1ccc(N2CCC3(CCN(C(N)=O)CC3)CC2)nn1`, the cytotoxicity at 70.5 h is -27.1%.

As to `Cc1cncc(C(=O)N2Cc3ccccc3C3(CCN(C)CC3)C2)c1`, the cytotoxicity at 70.5 h was -14.6%. The result for `Cc1ccc(C(=O)N2C[C@H]3CCC[C@@]3(COCc3cccnc3)C2)s1` reads -12%; that for `C[C@H](O)CNc1cc(-c2cn[nH]c2)ncn1`, 6.37%. With `CC(C)(CO)Nc1cc(-c2ccncc2)ncn1` the figure was -2.83%; with `CC(C)[C@@H](CO)Nc1cc(-c2cn[nH]c2)ncn1`, 0.985%; with `COc1cc(-c2cc(=O)[nH]cn2)cc(OC)c1OC`, -5.45%. In the case of `COCCN1CC(=O)c2sc(NC(C)C)nc2C1`, the cytotoxicity at 70.5 h stood at 2.05%. The result for `Cc1ccc2c(c1)[C@@H](CC(=O)N1CCOCC1)CCO2` reads 0.54%; that for `OCCNc1nccc(-c2c[nH]nc2-c2ccncc2)n1`, -2.75%.

Turning to `OCCNc1nccc(-c2c[nH]nc2-c2cccnc2)n1`, the cytotoxicity at 70.5 h was -3.73%. The result for `Cc1[nH]c2ccccc2c1-c1ccnc(N[C@@H](C)CO)n1` reads -3.05%; that for `NC(=O)[C@H]1CCCN(c2nccc(-c3ccncc3)n2)C1`, -0.804%. With `CNc1nccc(-c2cnc3sc(C)c(C)n3c2=O)n1` the figure was 0.0839%; with `O=c1[nH][nH]cc1-c1ccnc(NCCc2cccc(O)c2)n1`, -7.19%; with `Nc1ncc(-c2cccc(NC(=O)[C@@H]3CCCCN3)c2)cn1`, -4.27%. With `CC[C@@H](C)[C@@H](N)C(=O)Nc1cccc(-c2cnc(N)nc2)c1` the figure was -6%; with `CNc1ncc(-c2ccnn2C2CCN(C(C)=O)CC2)cn1`, -7.63%; with `CN(C)c1nccc(NCc2cc(-c3cccs3)n[nH]2)n1`, 4.36%. Consider `CCCN(C)c1ncc2c(n1)N(C)CCN(CC1CC1)C2=O`, for which the cytotoxicity at 70.5 h is -1.69%. With `O=c1[nH]c(-c2ccncc2)ncc1-c1ccnc(NC2CC2)n1` the figure was 23.6%; with `COCC(=O)NCC[C@H]1CC(C)(C)Oc2ccc(OC)cc21`, -2.28%. The result for `Cc1csc2ncc(-c3ccnc(N4CCCC4)n3)c(=O)n12` reads -2.62%. For the molecule `CC[C@H](C)Nc1ncc(-c2cccc(NC(=O)CNC)c2)cn1`, the cytotoxicity at 70.5 h is -0.898%. `O=C1CN(CC2CC2)Cc2nc(NCc3ccccc3)sc21`: the cytotoxicity at 70.5 h is 20.7%.

Turning to `COc1ccc(C(=O)NC2CC2)c(OC2CCN(C(C)CO)CC2)c1` (stereo unspecified), the cytotoxicity at 70.5 h is 0.736%. With `CCC(=O)c1ccc(OCC(=O)NCC2CC(CC)=NO2)cc1` (stereo unspecified) the figure was -1.34%.

For the molecule `COCCN(Cc1ccc(C)cc1)Cc1c[nH]cn1`, the cytotoxicity at 70.5 h is -7.56%. On to `CC(C)=CCC1(CO)CCCN(S(C)(=O)=O)C1` (stereo unspecified), for which the cytotoxicity at 70.5 h worked out at 1.79%. For the molecule `CN1C(=O)[C@H]2CC[C@@H]1CN(S(=O)(=O)c1ccc(Cl)cc1Cl)C2`, the cytotoxicity at 70.5 h is -10.4%. With `O=C(NCCO)c1coc(Cn2cnc3ccccc32)n1` the figure was -1.94%; with `COCCN(Cc1nccs1)C(=O)c1cc(-c2ccc(C)s2)n[nH]1`, -5.54%. The result for `Clc1cc(NCc2ccncc2)nc2[nH]ccc12` reads 13%; that for `O=C(CCc1nc(Cl)n[nH]1)N1C[C@@H](CN2CCCCC2)[C@@H](CO)C1`, -6.93%. On to `O=C(CCN1C[C@H]2CC[C@@H]1CN(c1ncccn1)C2)NCc1ccco1`, for which the cytotoxicity at 70.5 h is 27.5%. Take `CC(O)C1CCN(C(=O)Nc2nc(-c3ccccc3)ns2)CC1` (stereo unspecified): the cytotoxicity at 70.5 h is 4.55%. The result for `COc1cc2[nH]c(=O)c(CN3CCC[C@@H]3C(N)=O)cc2c(OC)c1OC` reads 23.4%; that for `CS(=O)(=O)c1ncc(CN2CCCC(C(N)=O)C2)n1CC1CCCCC1` (stereo unspecified), -1.8%; that for `COc1ccnc(N2Cc3cnc(C(C)(C)C)nc3C2)n1`, 0.551%. `CC(=O)N1CCC(Oc2ccc(Cl)cc2C(=O)N2CCCO2)CC1`: the cytotoxicity at 70.5 h was -3.91%.

For `CCOc1ccc(CN2CC[C@](C)(O)C(C)(C)C2)cn1`, the cytotoxicity at 70.5 h was -1.38%.

Consider `CCCc1cc(CNC2CCN(c3cc(C(C)C)nc(C)n3)CC2)on1`, for which the cytotoxicity at 70.5 h was -4.25%. With `CCCN1CCC(CC(=O)N2CC(C)(C)[C@@](C)(O)C2)CC1` the figure was -2.11%. With `Cn1ccnc1CN1CCN(Cc2ccncc2)[C@@H]2CS(=O)(=O)C[C@@H]21` the figure was -13.6%; with `CCc1ncc(CN2CCCC3(CCC(=O)N(CCC(C)C)C3)C2)cn1` (stereo unspecified), 1.46%.

As to `Cc1cccc(CN(Cc2ccccc2)Cc2nccs2)n1`, the cytotoxicity at 70.5 h was -11.1%. Turning to `CCc1nnsc1-c1nc(C(C)C)nn1-c1ccc2c(c1)OCO2`, the cytotoxicity at 70.5 h is -5.86%. The result for `COCC(=O)N1CCN(S(=O)(=O)c2ccccc2)[C@H]2CS(=O)(=O)C[C@H]21` reads -7.41%; that for `Cc1ccccc1C1CCN(CCNC(=O)CS(C)(=O)=O)C1` (stereo unspecified), -4.32%; that for `CC(C)c1cc(C(=O)N2C[C@H]3CC[C@@H]2CN(Cc2cscn2)C3)no1`, 15.2%.

With `O=C(O)c1cn(CC2CCCN(c3nc4ccccc4s3)C2)nn1` (stereo unspecified), the cytotoxicity at 70.5 h was 20.3%. The result for `CC(C)(O)CCc1cccc(C(=O)NCC2CN(S(C)(=O)=O)CCO2)c1` (stereo unspecified) reads 10.1%. With `Cc1cccc(C(=O)N2CCCC(c3nccn3Cc3cscn3)C2)n1` (stereo unspecified) the figure was -5.05%. With `Cc1ncccc1Oc1ncnc(N2CCC(O)(CO)CC2)c1C` the figure was -6.21%. For the molecule `NC1(C(=O)NCC2CCCN(Cc3cccc4nonc34)C2)CCC1` (stereo unspecified), the cytotoxicity at 70.5 h is -3.66%. The result for `CC(C)=CCN1CCN(C(=O)CSc2ccccn2)[C@H]2CS(=O)(=O)C[C@H]21` reads -8.43%; that for `Cc1nc(C(C)C)sc1C(=O)NCCSc1ccccn1`, -11.3%; that for `O=C1N(CCc2ccccc2)CCCC1(O)CNCc1ccc(F)cc1` (stereo unspecified), 6.09%.

Regarding `CC(=O)N1C[C@H]2CNC[C@@]2(C(=O)NCCNc2ccncc2C)C1`, the cytotoxicity at 70.5 h was -0.521%. As to `CC(C)c1cc(N2CCC3(CCN(C)C3)C2)ncn1` (stereo unspecified), the cytotoxicity at 70.5 h came out at 3.25%. As to `Cc1cc(C)n(CC(C)NC2CCN(Cc3cccc(O)c3)CC2)n1` (stereo unspecified), the cytotoxicity at 70.5 h was -7.84%. The result for `COc1ccccc1OC1(C(=O)O)CCN(c2ncnc(C)c2C)CC1` reads 17.6%; that for `COc1cccc(CN2CCCCC2CN2CCOCC2)c1F` (stereo unspecified), -2.15%. With `Cc1ccccc1OCC(=O)N1CCOC2(CNCCOC2)C1` (stereo unspecified) the figure was -5.6%; with `Cc1ccccc1OC1CCN(C(=O)c2c[nH]c(=O)[nH]c2=O)CC1`, -0.618%; with `CCN1CC(CN(C)Cc2nc(-c3ccoc3)oc2C)CC1=O` (stereo unspecified), 0.925%. As for `COCCn1cncc1CN1CCCC(C)(c2ccccc2)C1` (stereo unspecified), the cytotoxicity at 70.5 h came to 18%.

With `COc1ccc(F)cc1NC(=O)NCC1(C)COC1`, the cytotoxicity at 70.5 h came to 0.338%.

For `CCC(C)N1CCC(Oc2ccc(C(=O)NCCN(C)C)cc2Cl)CC1` (stereo unspecified), the cytotoxicity at 70.5 h is -5.39%. With `COC[C@@]12CC[C@@H](N3CCOCC3)C[C@H]1CCN(c1ncccc1F)C2` the figure was -6.47%; with `Cc1cc(CN2CCN(CC3CC3)[C@@H]3CS(=O)(=O)C[C@@H]32)cc(C)c1O`, -2.43%; with `O=c1cc(N2CCCCC2)cnn1CC(O)C(F)(F)F` (stereo unspecified), -8.52%. The result for `Cc1ncsc1CCN(C)Cc1ccc(CO)o1` reads -5.5%; that for `CSCCc1c(-c2ccccc2)ncn1[C@H]1C[C@@H](C(=O)O)N(C)C1`, -13.3%. With `CNc1ncc(CN(C)Cc2cc(O)c3cccc(Cl)c3n2)cn1` the figure was -15.2%. On to `CSc1ccccc1CN1C[C@H]2CC[C@@H]1CN(Cc1[nH]cnc1C)C2`, for which the cytotoxicity at 70.5 h was 17.6%.

Regarding `CCS(=O)(=O)N1CCC2(CC1)CN(Cc1ccccn1)C(=O)CO2`, the cytotoxicity at 70.5 h was -11.1%.

For the molecule `COCC1CN(Cc2ccc(OC)cc2)Cc2nn(C)cc21` (stereo unspecified), the cytotoxicity at 70.5 h worked out at 8.65%. With `Cn1cc(CN2CCCC3(CCCN3S(C)(=O)=O)C2)cn1` (stereo unspecified) the figure was -16.8%. The result for `c1cnc(N2CCC3(COCCN(CC4CC4)C3)C2)nc1` (stereo unspecified) reads -21.1%; that for `CCc1ccc(CN2CCC3(CC2)NC(=O)CC3c2ccncc2)o1` (stereo unspecified), -23%; that for `O=C(Nc1cccnc1)[C@@H]1C[C@H]2OCC[C@H]2N(Cc2ccsc2)C1`, 0.225%.

As for `CN(C)CCN1CCCC12CCN(C(=O)c1cccn1C)CC2`, the cytotoxicity at 70.5 h is -15.1%. The result for `CN1CC(=O)N(c2ccccc2)CC12CCN(CC1CC1)C2` (stereo unspecified) reads -26.6%.
